Measured values published in US11919901B2 (Syndax Pharmaceuticals, Inc., priority 2021, dated 2024).
Values belong to the compound of their own block, whether it stands above or below them.

Columns and labels:
Menin-MLL = Menin-MLL (Homo sapiens (Human), UniProt O00255); test: Determination of binding constants (Ki) to Menin-MLL (HTRF); conditions: HTRF, 0.25 nM H-FL-Menin, 3.2 nM FITC-MLL-4-43, 24 hr incubation; for Ki: read-out: Menin-MLL Ki HTRF Assay: Ki
hERG = hERG (Homo sapiens (Human), UniProt Q12809); test: Patch clamp assay (hERG tail currents, whole-cell); type: cell-based; conditions: hERG transfected HEK 293 cells
Chain of hERG (Q12809 whole entry): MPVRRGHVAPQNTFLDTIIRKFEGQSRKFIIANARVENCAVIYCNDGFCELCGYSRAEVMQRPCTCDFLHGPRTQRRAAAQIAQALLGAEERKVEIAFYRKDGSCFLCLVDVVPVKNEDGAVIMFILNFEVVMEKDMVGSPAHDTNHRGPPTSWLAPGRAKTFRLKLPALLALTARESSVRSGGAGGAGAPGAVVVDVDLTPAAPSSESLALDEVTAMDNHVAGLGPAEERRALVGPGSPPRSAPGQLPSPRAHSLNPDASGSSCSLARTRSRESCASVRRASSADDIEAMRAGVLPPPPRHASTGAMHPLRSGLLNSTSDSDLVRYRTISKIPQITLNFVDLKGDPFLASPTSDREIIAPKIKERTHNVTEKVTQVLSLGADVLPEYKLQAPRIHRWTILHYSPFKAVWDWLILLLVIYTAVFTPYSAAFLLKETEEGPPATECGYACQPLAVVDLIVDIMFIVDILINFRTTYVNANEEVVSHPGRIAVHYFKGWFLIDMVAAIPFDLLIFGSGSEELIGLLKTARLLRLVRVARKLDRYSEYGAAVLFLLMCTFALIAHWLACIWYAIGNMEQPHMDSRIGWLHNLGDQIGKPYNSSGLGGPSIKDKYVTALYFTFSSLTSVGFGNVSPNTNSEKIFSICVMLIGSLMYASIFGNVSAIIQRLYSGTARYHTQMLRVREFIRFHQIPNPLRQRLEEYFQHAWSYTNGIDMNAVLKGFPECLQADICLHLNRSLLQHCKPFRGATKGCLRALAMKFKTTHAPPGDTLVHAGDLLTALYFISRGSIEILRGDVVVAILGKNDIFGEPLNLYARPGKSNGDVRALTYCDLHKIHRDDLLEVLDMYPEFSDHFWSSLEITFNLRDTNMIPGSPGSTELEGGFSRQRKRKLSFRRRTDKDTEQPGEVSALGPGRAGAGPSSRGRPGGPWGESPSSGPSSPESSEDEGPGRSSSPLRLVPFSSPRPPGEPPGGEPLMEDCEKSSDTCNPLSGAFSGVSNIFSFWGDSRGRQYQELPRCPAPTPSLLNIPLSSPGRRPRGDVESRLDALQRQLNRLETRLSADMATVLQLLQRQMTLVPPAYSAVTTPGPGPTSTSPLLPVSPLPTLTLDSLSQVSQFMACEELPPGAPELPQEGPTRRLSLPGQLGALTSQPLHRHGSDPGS

Chain of Menin-MLL (O00255 whole entry): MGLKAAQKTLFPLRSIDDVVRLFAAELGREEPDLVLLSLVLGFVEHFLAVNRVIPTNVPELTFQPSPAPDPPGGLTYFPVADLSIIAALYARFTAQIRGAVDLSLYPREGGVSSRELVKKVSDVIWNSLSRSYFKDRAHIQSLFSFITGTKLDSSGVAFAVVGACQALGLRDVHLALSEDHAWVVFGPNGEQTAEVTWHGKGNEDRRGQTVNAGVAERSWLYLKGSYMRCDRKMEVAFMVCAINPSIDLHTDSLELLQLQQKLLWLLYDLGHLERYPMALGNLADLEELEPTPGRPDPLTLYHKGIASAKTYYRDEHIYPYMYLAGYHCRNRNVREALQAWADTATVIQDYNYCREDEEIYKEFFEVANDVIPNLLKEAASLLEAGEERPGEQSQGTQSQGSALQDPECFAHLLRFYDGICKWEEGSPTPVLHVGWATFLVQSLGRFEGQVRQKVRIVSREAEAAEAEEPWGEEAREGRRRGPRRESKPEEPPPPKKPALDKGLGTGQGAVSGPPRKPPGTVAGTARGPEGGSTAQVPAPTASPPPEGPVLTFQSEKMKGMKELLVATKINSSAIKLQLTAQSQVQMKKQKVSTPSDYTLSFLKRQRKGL

SMILES: CCN(C(=O)c1cc(F)ccc1Oc1cncnc1N1CC2(CCN(C[C@@H]3CC[C@@H](NS(=O)(=O)CCN(C)C)CO3)CC2)C1)C(C)C [Compound 220, 2-((4-(7-(((2S,5R)-5-((2-(Dimethylamino)ethyl)sulfonamido)tetrahydro-2H-pyran-2-yl)methyl)-2,7-diazaspiro[3.5]nonan-2-yl)pyrimidin-5-yl)oxy)-N-ethyl-5-fluoro-N-isopropylbenzamide]
Ki (Menin-MLL): 1 to 1.5 nM

SMILES: CC(C)N(C(=O)c1cc(F)ccc1Oc1cncnc1N1CC2(CCN(C[C@@H]3CC[C@@H](NS(=O)(=O)N4CC5(CCO5)C4)CO3)CC2)C1)C(C)C [Compound 221, 2-((4-(7-(((2S,5R)-5-(1-Oxa-6-azaspiro[3.3]heptane-6-sulfonamido)tetrahydro-2H-pyran-2-yl)methyl)-2,7-diazaspiro[3.5]nonan-2-yl)pyrimidin-5-yl)oxy)-5-fluoro-N,N-diisopropylbenzamide]
Ki (Menin-MLL): < 1 nM

SMILES: CC(C)N(C(=O)c1cc(F)ccc1Oc1cncnc1N1CC2(CCN(C[C@@H]3CC[C@@H](NS(=O)(=O)N4CC5(COC5)C4)CO3)CC2)C1)C(C)C [Compound 222, 2-((4-(7-(((2S,5R)-5-(2-Oxa-6-azaspiro[3.3]heptane-6-sulfonamido)tetrahydro-2H-pyran-2-yl)methyl)-2,7-diazaspiro[3.5]nonan-2-yl)pyrimidin-5-yl)oxy)-5-fluoro-N,N-diisopropylbenzamide]
Ki (Menin-MLL): < 1 nM

SMILES: CN=S(=O)(N[C@@H]1CC[C@@H](CN2CCC3(CC2)CN(c2ncncc2Oc2ccc(F)cc2C(=O)N(C(C)C)C(C)C)C3)OC1)c1ccccc1 (stereo partly drawn) [Compound 232, 5-Fluoro-N,N-diisopropyl-2-((4-(7-(((2S,5R)-5-(N′-methylphenylsulfonoamidimidamido)tetrahydro-2H-pyran-2-yl)methyl)-2,7-diazaspiro[3.5]nonan-2-yl)pyrimidin-5-yl)oxy)benzamide]
Ki (Menin-MLL): < 1 nM

SMILES: CC(C)N(C(=O)c1cc(F)ccc1Oc1cncnc1N1CC2(CCN(C[C@@H]3CC[C@@H](NS(=N)(=O)C4CC4)CO3)CC2)C1)C(C)C (stereo partly drawn) [Compound 233, 2-((4-(7-(((2S,5R)-5-(Cyclopropanesulfonoamidimidamido)tetrahydro-2H-pyran-2-yl)methyl)-2,7-diazaspiro[3.5]nonan-2-yl)pyrimidin-5-yl)oxy)-5-fluoro-N,N-diisopropylbenzamide]
Ki (Menin-MLL): < 1 nM

SMILES: Cc1ncc(S(=O)(=O)N[C@@H]2CC[C@@H](CN3CCC4(CC3)CN(c3ncncc3Oc3ccc(F)cc3C(=O)N(C(C)C)C(C)C)C4)OC2)[nH]1 [Compound 234, 5-Fluoro-N,N-diisopropyl-2-((4-(7-(((2S,5R)-5-((2-methyl-1H-imidazole)-5-sulfonamido)tetrahydro-2H-pyran-2-yl)methyl)-2,7-diazaspiro[3.5]nonan-2-yl)pyrimidin-5-yl)oxy)benzamide]
Ki (Menin-MLL): < 1 nM

SMILES: CC(C)N(CC(F)F)C(=O)c1cc(F)ccc1Oc1cncnc1N1CC2(CCN(C[C@@H]3CC[C@@H](NS(=O)(=O)N4CC(OCc5ccccc5)C4)CO3)CC2)C1 [Compound 236, 2-((4-(7-(((2S,5R)-5-((3-(Benzyloxy)azetidine)-1-sulfonamido)tetrahydro-2H-pyran-2-yl)methyl)-2,7-diazaspiro[3.5]nonan-2-yl)pyrimidin-5-yl)oxy)-N-(2,2-difluoroethyl)-5-fluoro-N-isopropylbenzamide]
Ki (Menin-MLL): < 1 nM

SMILES: CC(C)N(CC(F)F)C(=O)c1cc(F)ccc1Oc1cncnc1N1CC2(CCN(C[C@@H]3CC[C@@H](NS(=O)(=O)N4CC(O)C4)CO3)CC2)C1 [Compound 237, N-(2,2-Difluoroethyl)-5-fluoro-2-((4-(7-(((2S,5R)-5-((3-hydroxyazetidine)-1-sulfonamido)tetrahydro-2H-pyran-2-yl)methyl)-2,7-diazaspiro[3.5]nonan-2-yl)pyrimidin-5-yl)oxy)-N-isopropylbenzamide]
Ki (Menin-MLL): < 1 nM

SMILES: CC(C)N(CC(F)F)C(=O)c1cc(F)ccc1Oc1cncnc1N1CC2(CCN(C[C@@H]3CC[C@@H](NS(=O)(=O)N(C)CCOCc4ccccc4)CO3)CC2)C1 [Compound 238]
Ki (Menin-MLL): < 1 nM

SMILES: CCS(=O)(=O)N[C@@H]1CC[C@@H](CN2CCC3(CC2)CN(c2ncncc2Oc2ccc(F)cc2C(=O)N(CCC(F)F)C(C)C)C3)OC1 [Compound 242, N-(3,3-Difluoropropyl)-2-((4-(7-(((2S,5R)-5-(ethylsulfonamido)tetrahydro-2H-pyran-2-yl)methyl)-2,7-diazaspiro[3.5]nonan-2-yl)pyrimidin-5-yl)oxy)-5-fluoro-N-isopropylbenzamide]
EC50 (Menin-MLL): < 50 nM | Ki (Menin-MLL): < 1 nM

SMILES: CCS(=O)(=O)N[C@@H]1CC[C@@H](CN2CCC3(CC2)CN(c2ncncc2Oc2ccc(F)cc2C(=O)N(C(C)C)C2CC(F)C2)C3)OC1 (stereo partly drawn) [Compound 244, 2-((4-(7-(((2S,5R)-5-(ethylsulfonamido)tetrahydro-2H-pyran-2-yl)methyl)-2,7-diazaspiro[3.5]nonan-2-yl)pyrimidin-5-yl)oxy)-5-fluoro-N-((1s,3s)-3-fluorocyclobutyl)-N-isopropylbenzamide]
hERG % Remaining 10 μM (hERG; 10 μM compound): +++ (“+++” means ≥66%) | hERG % Remaining 30 μM (hERG; 30 μM compound): ++ (“++” means ≥33% and <66%)

SMILES: CC(C)N(C(=O)c1cc(F)ccc1Oc1cncnc1N1CC2(CCN(C[C@@H]3CC[C@@H](NS(=O)(=O)C4CC4)CO3)CC2)C1)C1COC1 [Compound 247, 2-((4-(7-(((2S,5R)-5-(Cyclopropanesulfonamido)tetrahydro-2H-pyran-2-yl)methyl)-2,7-diazaspiro[3.5]nonan-2-yl)pyrimidin-5-yl)oxy)-5-fluoro-N-isopropyl-N-(oxetan-3-yl)benzamide]
EC50 (Menin-MLL): < 50 nM | Ki (Menin-MLL): < 1 nM

EC50 (Menin-MLL): < 50 nM
SMILES: CCS(=O)(=O)N[C@@H]1CC[C@@H](CN2CCC3(CC2)CN(c2ncncc2Oc2ccc(F)cc2C(=O)N(C(C)C)C2CCOCC2)C3)OC1 [Compound 250, 2-((4-(7-(((2S,5R)-5-(Ethylsulfonamido)tetrahydro-2H-pyran-2-yl)methyl)-2,7-diazaspiro[3.5]nonan-2-yl)pyrimidin-5-yl)oxy)-5-fluoro-N-isopropyl-N-(tetrahydro-2H-pyran-4-yl)benzamide]

SMILES: CCS(=O)(=O)N[C@@H]1CC[C@@H](CN2CCC3(CC2)CN(c2ncncc2Oc2ccc(F)cc2C(=O)N(C(C)C)[C@@H]2C[C@@H]4CC[C@H]2O4)C3)OC1 [Compound 251, N-((lR,2R,4S)-7-Oxabicyclo[2.2.1]heptan-2-yl)-2-((4-(7-(((2S,5R)-5-(ethylsulfonamido)tetrahydro-2H-pyran-2-yl)methyl)-2,7-diazaspiro[3.5]nonan-2-yl)pyrimidin-5-yl)oxy)-5-fluoro-N-isopropylbenzamide]
Ki (Menin-MLL): < 1 nM

SMILES: CCS(=O)(=O)N[C@@H]1CC[C@@H](CN2CCC3(CC2)CN(c2ncncc2Oc2ccc(F)cc2C(=O)N(C(C)C)C2CC4(COC4)C2)C3)OC1 [Compound 252, 2-((4-(7-(((2S,5R)-5-(Ethylsulfonamido)tetrahydro-2H-pyran-2-yl)methyl)-2,7-diazaspiro[3.5]nonan-2-yl)pyrimidin-5-yl)oxy)-5-fluoro-N-isopropyl-N-(2-oxaspiro[3.3]heptan-6-yl)benzamide]
Ki (Menin-MLL): < 1 nM

SMILES: CCS(=O)(=O)N[C@@H]1CC[C@@H](CN2CCC3(CC2)CN(c2ncncc2Oc2ccc(F)cc2C(=O)N(C(C)C)[C@H]2[C@@H]4COC[C@@H]42)C3)OC1 [Compound 253, N-((1R,5S,6r)-3-c)-2-((4-(7-(((2S,5R)-5-(ethylsulfonamido)tetrahydro-2H-pyran-2-yl)methyl)-2,7-diazaspiro[3.5]nonan-2-yl)pyrimidin-5-yl)oxy)-5-fluoro-N-isopropylbenzamide]
Ki (Menin-MLL): < 1 nM

SMILES: COCCN(C(=O)c1cc(F)ccc1Oc1cncnc1N1CC2(CCN(C[C@@H]3CC[C@@H](NS(=O)(=O)c4ccccc4)CO3)CC2)C1)C(C)C [Compound 254, 5-Fluoro-N-isopropyl-N-(2-methoxyethyl)-2-((4-(7-(((2S,5R)-5-(phenylsulfonamido)tetrahydro-2H-pyran-2-yl)methyl)-2,7-diazaspiro[3.5]nonan-2-yl)pyrimidin-5-yl)oxy)benzamide]
EC50 (Menin-MLL): < 50 nM | Ki (Menin-MLL): < 1 nM

SMILES: CCS(=O)(=O)N[C@@H]1CC[C@@H](CN2CCC3(CC2)CN(c2ncncc2Oc2ccc(F)cc2C(=O)N(C[C@@H](O)CO)C(C)C)C3)OC1 [Compound 255, N-((R)-2,3-Dihydroxypropyl)-2-((4-(7-(((2S,5R)-5-(ethylsulfonamido)tetrahydro-2H-pyran-2-yl)methyl)-2,7-diazaspiro[3.5]nonan-2-yl)pyrimidin-5-yl)oxy)-5-fluoro-N-isopropylbenzamide]
EC50 (Menin-MLL): < 50 nM | Ki (Menin-MLL): < 1 nM

SMILES: CCS(=O)(=O)N[C@@H]1CC[C@@H](CN2CCC3(CC2)CN(c2ncncc2Oc2ccc(F)cc2C(=O)N(C(C)C)[C@H]2C[C@H](O)C2)C3)OC1 [Compound 259, 2-((4-(7-(((2S,5R)-5-(Ethylsulfonamido)tetrahydro-2H-pyran-2-yl)methyl)-2,7-diazaspiro[3.5]nonan-2-yl)pyrimidin-5-yl)oxy)-5-fluoro-N-((1r,3r)-3-hydroxycyclobutyl)-N-isopropylbenzamide]
EC50 (Menin-MLL): < 50 nM | Ki (Menin-MLL): < 1 nM

EC50 (Menin-MLL): < 50 nM
SMILES: CCS(=O)(=O)N[C@@H]1CC[C@@H](CN2CCC3(CC2)CN(c2ncncc2Oc2ccc(F)cc2C(=O)N(c2ccccc2)C(C)C)C3)OC1 [Compound 260, 2-((4-(7-(((2S,5R)-5-(Ethylsulfonamido)tetrahydro-2H-pyran-2-yl)methyl)-2,7-diazaspiro[3.5]nonan-2-yl)pyrimidin-5-yl)oxy)-5-fluoro-N-isopropyl-N-phenylbenzamide]

EC50 (Menin-MLL): < 50 nM
SMILES: CCS(=O)(=O)N[C@@H]1CC[C@@H](CN2CCC3(CC2)CN(c2ncncc2Oc2ccc(F)cc2C(=O)N(c2ccccc2)c2ccccc2)C3)OC1 [Compound 261]
